Row | SMILES | melting point [°C]
1 | Cc1c(-c2ccccc2F)[nH]c(N)c1C#N | 117 to 118
2 | CCN1C(=O)CCC2=C1CCc1cc(F)ccc12 | 72
3 | CC(Cn1nnc2ccccc21)(NC(=O)OC1C2CC3CC(C2)CC1C3)C(=O)NCCc1ccccc1 (stereo unspecified) | 180 to 185
4 | COc1ccccc1Nc1cc(-c2c(-c3cccc(C)c3)nc3cccnn23)ccn1 | 157 to 158
5 | CN(C)Cc1cccc(OCCCNc2ncc(Cc3cccnc3)c(=O)[nH]2)c1 | 103 to 104
6 | O=C1Nc2cccnc2N(C(=O)CN2CCCCC2CN2CCOCC2)c2ccccc21 (stereo unspecified) | 203 to 205
7 | CCOC(=O)C(CCN1CCN(c2ncc(F)cn2)CC1)C(=O)c1ccc(F)cc1 (stereo unspecified) | 95 to 96
8 | CCOC(=O)c1c(N2CCCC2)c2cccnc2n(C)c1=O | 118 to 120
9 | c1ccc(OCCSCc2nnc(-c3ccc(OCCN4CCCCC4)cc3)o2)cc1 | 70
10 | COc1ccc(N2CCN(c3c(C)c(C(C)O)c4c(c3C)C(c3ccc(C)cc3)C(C)(C)O4)CC2)cc1 (stereo unspecified) | 149 to 151
11 | CC(C)(C#N)Cc1ccc(CC(C)(C)C#N)cc1 | 192 to 194
12 | N#CC(Cl)CS(=O)(=O)c1ccc(OC(F)(F)C(Cl)Cl)cc1 (stereo unspecified) | 109
13 | S=C=Nc1ccc2sc(-c3cccnc3)nc2c1 | 160 to 162
14 | Nc1nnc(-c2cc3c(Oc4ccc(Cl)cc4)cncc3s2)[nH]1 | > 270
15 | CN(C)CCCC1(C)CCc2cccc(O)c2O1 (stereo unspecified) | 127 to 133
16 | CCOC(=O)CNC(=S)NC(=Nc1ccc([N+](=O)[O-])cc1)c1ccccc1 | 189 to 190
17 | COc1ccc2c(c1OC)C(=Cc1ccccc1)c1ccccc1-2 | 210
18 | Cc1cc(-c2c(-c3ccc(S(C)(=O)=O)cc3)cnn(-c3ccc(F)c(Cl)c3)c2=O)ccc1F | 207 to 208
19 | Nc1ccccc1OCc1nc(Cl)ccc1Cl | 74 to 75
20 | Clc1cnc2c(C(Cl)(Cl)Cl)cc(Cl)cc2c1 | 198
21 | Cc1c(-c2cccc(O)c2)n(Cc2ccc(OCCN3CCCCC3)cc2)c2ccc(O)cc12 | 115 to 118
22 | Cc1cnc(C(=O)NCCO[N+](=O)[O-])s1 | 110 to 112
23 | COc1c(C=O)ccc2c1oc1ccccc12 | 178 to 180
24 | CCOC(=O)/C=C(\c1ccc(C)cc1)c1ccc(OC)c(OC)c1 | 69 to 70
25 | Clc1nc(SCc2ccccc2)nc2nc[nH]c12 | 176 to 178
26 | CC(C)NC(=O)c1nc(-c2cccc(Cl)c2)c(-c2ccc(=O)n(C(C)C)n2)s1 | 105 to 106

Row | SMILES | melting point [°C]
27 | CCOC(=O)c1ccc(OC(F)F)cc1SC | 83 to 85
28 | c1ccc2c3cncc-3cncc2c1 | 220 to 221
29 | CCCc1n[nH]cc1-c1nsc(Nc2ccccn2)n1 | 248 to 250
30 | COC(=O)C(C#N)=C(O)c1cc(F)c(F)c(F)c1F | 71 to 73
31 | FC(F)(F)c1ccc(-c2nnc(-c3cccc(C4OCCO4)c3)o2)cc1 | 107 to 108
32 | O=C(c1ccccc1)c1ccc(OC(=O)C2CCCCC2)cc1 | 111 to 112
33 | CCc1ccc(C)c(S(=O)(=O)NC(=O)n2nc(C)n(C)c2=O)c1 | 145
34 | O=C(NC1CC1)c1ccc2c(=O)nc(-c3ccccn3)sc2c1 | 272 to 274
35 | Cc1cc(Br)c2c(c1)/C(=N\NC(N)=O)C(=O)N2CCN(C(C)C)C(C)C | 189 to 192
36 | Cc1cccc(C(=O)N2CCC3(CC2)CSC2=C(O3)c3ccccc3C(=O)C2=O)c1 | 188 to 190
37 | O=C(O)c1cccc(C(=O)NCc2ccc(F)c(-c3cccc(CO)c3)c2)c1 | 169 to 171
38 | CC1(C)Cc2c(c(N3CCCCC3)nc3sc4c(NCCN5CCOCC5)ncnc4c23)CO1 | 158
39 | OC(c1ccc(F)cc1)(c1ccc(F)cc1)C1CCN(CCCOc2ccc(-c3ccccc3)cc2)CC1 | 108 to 109
40 | N[C@@H](CC1CCCCC1)[C@@H](O)[C@@H]1CCCS1 | 58 to 59
41 | CS(=O)(=O)c1ccc(-c2cnn(-c3ccc(F)cc3)c(=O)c2Cc2cccc(F)c2)cc1 | 176 to 178
42 | CCn1c(=O)c2[nH]c(/C=C/c3ccc(C)cc3)nc2n(CC)c1=O | > 280
43 | Cc1oc(-c2ccccc2)nc1COc1cc(COc2ncccc2CC(=O)O)on1 | 129 to 130
44 | COC(=O)NC(=O)c1nc(Cl)c(Cl)[nH]1 | 247
45 | O=C(NO)C1(S(=O)(=O)c2ccc(Oc3ccc(Cl)cc3)cc2)CCN(Cc2ccccc2)CC1 | 90.4
46 | CN(C)C=CC(=O)c1ccc(OCc2ccccc2)cc1 | 138
47 | COCOc1cc([N+](=O)[O-])c(F)cc1Cl | 78 to 80
48 | CC1(C)c2ccccc2S(=O)(=O)N1CCCCl | 107
49 | CC(=O)N1N=C(c2ccc(N)c(C)c2)c2cc(Cl)ccc2C=C1C | 209 to 211
50 | O=CN(O)C(CCCO)CS(=O)(=O)c1ccccc1Oc1ccc(Cl)cc1 (stereo unspecified) | 127 to 129
51 | CCCCCCCCCCCCCCCCCCOc1ccc(C(=O)OC)c(OCCCOc2ccc(OCc3ccccc3)cc2)c1 | 68 to 70
52 | O=c1c2[nH]c(N(S(=O)(=O)c3ccccc3)S(=O)(=O)c3ccccc3)nc2n(CC2CC2)c(=O)n1CC1CC1 | 238

Row | SMILES | melting point [°C]
53 | Cc1cccc(C)c1N1CCN(c2c(C)cccc2C)C1=N | 188 to 190
54 | O=C1CCC(c2ccccc2)(c2ccccc2)[C@@H]2CN(C(=O)Cc3cccs3)C[C@H]12 (racemic) | 206
55 | COC(=O)c1[nH]cc(Cc2ccsc2)c1N | 108 to 110
56 | CCCOc1oc(=O)c2cc(NC(=O)NCC)ccc2c1Cl | 189 to 191
57 | CCCCc1oc2ccccc2c1C(=O)Nc1ccc2c(Br)c(OC(Cc3ccccc3)C(=O)OC)ccc2c1 (stereo unspecified) | 136 to 139
58 | Cn1ncc2c1-c1cn[nH]c1CC2 | 180 to 186
59 | CCC(C)N(C(=O)c1cc(-c2ccccc2Cl)nc2ccccc12)C(C)CC (stereo unspecified) | 120
60 | O=C(O)/C=C/c1cnc(-c2ccc(O)c(C34CC5CC(CC(C5)C3)C4)c2)cn1 | 70 to 71
61 | CCOC(=O)c1c[nH]c2cc(F)c(OC)cc2c1=O | 280
62 | COc1cc(C=CC(=O)C=Cc2cc(OC)c(OC)c(OC)c2)cc(OC)c1OC | 45 to 47
63 | CCCCc1nc(Cl)c(C(=O)O)n1Cc1ccc2oc(-c3ccccc3-c3nnn[nH]3)c(C(C)(C)C)c2c1 | 129 to 132
64 | CSc1cc(C)nc(SC)c1[N+](=O)[O-] | 172 to 176
65 | CC(O)(C(=O)Nc1ccc(S(=O)(=O)N2CCCCC2)cc1)C(F)(F)F (stereo unspecified) | 164 to 166
66 | COc1cccc(C=C2OC(=O)c3ccccc32)c1 | 119 to 123
67 | O=C(CCl)N1CC=C(c2cccc(C(F)(F)F)c2)n2ncc(Cl)c21 | 116 to 119
68 | COc1cccc2sc(C3(c4ccc(S(N)(=O)=O)cc4)C=C(C(F)(F)F)NN3)nc12 (stereo unspecified) | 276 to 278
69 | COC(=O)CCNC(=O)COc1ccc2c(c1)CC(NS(=O)(=O)c1ccc(Cl)cc1)C2 (stereo unspecified) | 126 to 128
70 | CC(C)n1c(=O)n(C(=O)NCC2CCN(CC3(C(=O)O)CCCCC3)CC2)c2ccccc21 | 151
71 | CCOC(=O)CC(=O)c1cc(F)c(F)c(C)c1F | 38 to 39
72 | COCOc1c(NC(=S)NCc2cccnc2)cc(OC)cc1C(C)(C)C | 137 to 138
73 | Cc1nn(-c2ccccc2)c2[nH]c(=O)c3ccccc3c12 | 302 to 304
74 | Cc1ccc(Cl)cc1N1CN(Cc2ccccc2)CN(Cc2ccccc2)C1=S | 202 to 203
75 | O=C1CC=Nc2cc3c(cc21)OCO3 | 276
76 | CCCc1c(OCc2nc(N)c3nccnc3n2)ccc(C(C)=O)c1O | 178 to 180
77 | CS(=O)(=O)c1ccc(-c2cnn(Cc3ccc(F)cc3F)c(=O)c2-c2ccc(F)cc2)cc1 | 179 to 182
78 | CC1(C)OC(c2ccc(S(C)(=O)=O)c(Cl)c2)=C(c2ccccc2)C1=O | 174 to 175

Row | SMILES | melting point [°C]
79 | CNC(=O)Nc1ccc2c(c1)C(CN1CCC(n3ccc4cc(Cl)ccc43)CC1)CC2 (stereo unspecified) | 193 to 195
80 | COc1ccc(-c2nc(-c3ccc(Br)cc3)sc2-c2ccc(OC)cc2)cc1 | 155 to 157
81 | COC(=O)c1ccc(NC(=O)c2ccc(Br)nc2)nc1 | 173 to 174
82 | N#Cc1cn(C2CC2)c2c(F)c(F)c(F)cc2c1=O | 213 to 215
83 | Cc1cc2c(cc1C)-n1c(C)nnc1C=C(c1ccc(-n3c(C)nc4cnccc43)cc1)N2 | 294 to 296
84 | COC(=O)c1cc(N)c(F)c(-c2ccc(Cl)c(OC)c2F)n1 | 204 to 206
85 | N#CCNc1cn(-c2cccnc2)nc1Cl | 141 to 143
86 | CCCCCCCCCCCCCCCCCC(=O)C(=O)OCC | 43 to 44
87 | O=c1c(Br)cc(Cc2ccccc2)cn1Cc1ccccc1 | 89 to 90
88 | CS(=O)(=O)c1ccc(-c2coc3ccc(-c4nnc(O)o4)cc23)cc1 | 284 to 285
89 | COC(=O)CCCCCCCCN1C(=O)C(c2ccccc2)N(c2ccccc2)C1=O (stereo unspecified) | 69 to 72
90 | CCCCNC(=O)OC1c2nccnc2C(=O)N1c1ccc2ccc(Cl)nc2n1 (stereo unspecified) | 264
91 | CN(C)CCCNC(CC(=O)O)C(=O)OC1CCCCC1 (stereo unspecified) | 150 to 152
92 | CCC=C(CCC)C(=O)O | 38
93 | CCOc1cc(C)ccc1C1CCN(CCCCNC(=O)c2ccc(C=Cc3ccc(C(F)(F)F)cc3)cc2)CC1 | 210
94 | Cc1oc(-c2ccccc2)nc1C(O)COc1ccc(CC2SC(=O)NC2=O)nc1 (stereo unspecified) | 55 to 72
95 | C=CC12CCc3cc(O)ccc3C1=CCC1(C)C(O)CCC21 (stereo unspecified) | 149 to 150
96 | NS(=O)(=O)c1cc2c(s1)SCC(=O)N2 | 243 to 245
97 | OC(CCN1CCC(c2ccc(F)cc2)CC1)c1ccc(-c2ccccc2)cc1 (stereo unspecified) | 129 to 132
98 | CC(C)(C)OC(=O)Nc1ccsc1CC(=O)O | 70 to 72
99 | O=C(NCc1ccccc1O)[C@@H]1CCCN(c2cccc3c2C(=O)N(Cc2ccncc2)C3=O)C1 | 181 to 182
100 | CONC(=O)c1nsc2ccc(-n3c(=O)cc(C(F)(F)F)n(C)c3=O)cc12 | 125 to 127
101 | CCC1Cc2cc(NC(C)=O)ccc2C1=O (stereo unspecified) | 154 to 155

Reference: a melting point compilation (Tetko et al.; mined from patent text by program, amines drawn as free bases though some values may be those of a salt)
